Results taken from patent US8008088B2, “SMMR (small molecule metabolite reporters) for use as in vivo glucose biosensors” (Masimo Laboratories, Inc., priority 2003, dated 2011).
Read-outs that look alike come from different tables or passages of the source.

Legend:
[1] = Absorption and emission spectra of fluorescein and BeXan (Table 4); assay type: physicochemical
Excerpt: The configuration of the dye is strongly influenced by the nature of the heteroatom substitution. The structure of the dye responsible for the absorption may be estimated by consideration of the photophysical properties of related compounds and calculations on them. For example comparison of fluorescein and BeXan type dyes are shown in FIGS. 21a and 21b, with structures shown in Schemes 11 and 12, respectively.

[2] = hydroxyl group at position 3; cited from earlier work
[3] = Fluorescence and absorption response of boronic acid reporters to glucose in buffer solution (in vitro); conditions: for rise in fluorescence intensity on addition of glucose: glucose changed from zero to 300 mg/dL
[4] = test system: PHK cells; test: In-vitro detection in PHK cells loaded with reporter, two-photon fluorescent imaging; assay type: cell-based; conditions: reporter 50 micromolar; glucose increased to 300 mg/dl; EM 440 nm, excitation (2P) 705 nm
Procedure: PHK cells were loaded with AF-327d reporter, at 50 micromolar concentration, in buffer. Fluorescence was measured using a two-photon fluorescent imaging system at approximately EM 440 nm, and excitation at (2P) 705 nm. Pictures taken 10 minutes apart show a slight change in fluorescence intensity upon increasing the glucose concentration to 300 mg/dl in the cell buffer medium. This is seen clearly, as a 20% decrease in time course of fluorescence.

[5] = Glucose response rate in stirred cuvette, pH 8 phosphate buffer; conditions: 100 μL of 300 mg/dL glucose added; monitored every 15 seconds; ex 340 nm, em 440 nm
Procedure: Arg-327 unprotected batches were prepared. One batch was supplied as a yellow powder and the other as a concentrated solution in deuterated methanol. A small sample of these materials was taken and dissolved in 3 ml of pH 8 phosphate buffer. The fluorescence of these materials was excited at 340 nm and the emission monitored at 440 nm. The fluorescence was monitored every 15 seconds in a stirred cuvette. After about 3 minutes 100 μL of 300 mg/dL glucose in pH 8 buffer was added. […] Similar results were obtained for both samples.

[6] = pH dependency of esculetin spectra (pKa determination); assay type: physicochemical
Excerpt: The intensity of the fluorescence varies with pH but not the emission wavelength. The absorption spectrum did change with pH, implying the molecule could be used ratiometrically to measure pH using one monitoring wavelength and two excitation wavelengths. The relevant spectra are shown here together with a plot of absorption ratio as a function of pH (FIG. 45).

[7] = protonated, first (high energy) band
[8] = protonated, second (low energy) band

fluorescein
Difference in energy of protonated absorption bands [1]: 3.6 kcal/mol
Stokes shift for deprotonated bands [1]: 4.1 kcal/mol
Stokes shift for protonated bands [1]: 3.8 kcal/mol
Band position relative to the high-energy protonated absorption band, Absorption ([1]; Deprotonated band): 5.7 kcal/mol
Band position relative to the high-energy protonated absorption band, Emission ([1]; Deprotonated band): 9.8 kcal/mol
Band position relative to the high-energy protonated absorption band, Absorption ([1]; High energy protonated band): 0 kcal/mol
Band position relative to the high-energy protonated absorption band, Emission ([1]; High energy protonated band): 7.4 kcal/mol
Band position relative to the high-energy protonated absorption band, Absorption ([1]; Low energy protonated band): 3.6 kcal/mol
Band position relative to the high-energy protonated absorption band, Emission ([1]; Low energy protonated band): 9.9 kcal/mol
Absorption Energy ([1]; deprotonated): 57.1 kcal/mol
Absorption Wavelength ([1]; deprotonated): 501 nm
Emission Energy ([1]; deprotonated): 53 kcal/mol
Emission Wavelength ([1]; deprotonated): 540 nm
Absorption Energy [1, 7]: 62.8 kcal/mol
Absorption Wavelength [1, 7]: 455 nm
Emission Energy [1, 7]: 55.4 kcal/mol
Emission Wavelength [1, 7]: 516 nm
Absorption Energy [1, 8]: 59.2 kcal/mol
Absorption Wavelength [1, 8]: 483 nm
Emission Energy [1, 8]: 52.9 kcal/mol
Emission Wavelength [1, 8]: 541 nm
pKa [2]: 6.4

O=C(/C=C/c1ccc(B(O)O)cc1)c1cc2ccccc2oc1=O [AF-343]
response to glucose in vitro (in words) [3]: No fluorescence or glucose effect

O=C(Nc1ccc2c(C(F)(F)F)cc(=O)oc2c1)c1ccc(B(O)O)cc1 [AF-327d]
fluorescence emission (em) [3]: 440 nm
fluorescence excitation (ex) [3]: 340 nm
long wavelength absorption maximum [3]: 333 nm
response to glucose in vitro (in words) [3]: stronger response to glucose than other published compounds
change of absorption spectrum at the excitation wavelength ([3]; as a function of glucose concentration): less than 10%
rise in fluorescence intensity on addition of glucose [3]: 60%
Emission Wavelength ([3]; with and without added glucose at pH=7): 440 nm
decrease in time course of fluorescence [4]: 20%
glucose response rate (fluorescence versus time) [5]: increased immediately

O=C(Nc1ccc2oc(=O)c3ccccc3c2c1)c1ccc(B(O)O)cc1 [AF-345]
fluorescence emission (em) [3]: 435 nm
fluorescence excitation (ex) [3]: 330 nm
rise in fluorescence intensity on addition of glucose [3]: 30%

O=C(Nc1ccc([N+](=O)[O-])cc1)c1ccc(B(O)O)cc1 [AF-339]
response to glucose in vitro (in words) [3]: weaker than AF-327

O=c1ccc2cc(O)c(O)cc2o1 [esculetin, 6,7 dihydroxycoumarin]
pKa [6]: 7.5
